The source of these data is ChEMBL document CHEMBL4028801, “A multifactorial approach to hepatobiliary transporter assessment enables improved therapeutic compound development” (Toxicol Sci, 2013).

Structures can show the parent of a compound that is named as a salt. Bounds are passed on as bounds.

Assay [1] addresses Bile salt export pump (Homo sapiens, UniProt O95342). Nature of the assay: Inhibition of human BSEP overexpressed in Sf9 cell membrane vesicles assessed as uptake of [3H]-taurocholate in presence of ATP measured after 15 to 20 mins by membrane vesicle transport assay. It counts as ADME, cell-based.
Assay [2] addresses T1, ATP-binding cassette sub-family C member 4 (Homo sapiens, UniProt O15439).
T1 sequence (O15439 whole entry): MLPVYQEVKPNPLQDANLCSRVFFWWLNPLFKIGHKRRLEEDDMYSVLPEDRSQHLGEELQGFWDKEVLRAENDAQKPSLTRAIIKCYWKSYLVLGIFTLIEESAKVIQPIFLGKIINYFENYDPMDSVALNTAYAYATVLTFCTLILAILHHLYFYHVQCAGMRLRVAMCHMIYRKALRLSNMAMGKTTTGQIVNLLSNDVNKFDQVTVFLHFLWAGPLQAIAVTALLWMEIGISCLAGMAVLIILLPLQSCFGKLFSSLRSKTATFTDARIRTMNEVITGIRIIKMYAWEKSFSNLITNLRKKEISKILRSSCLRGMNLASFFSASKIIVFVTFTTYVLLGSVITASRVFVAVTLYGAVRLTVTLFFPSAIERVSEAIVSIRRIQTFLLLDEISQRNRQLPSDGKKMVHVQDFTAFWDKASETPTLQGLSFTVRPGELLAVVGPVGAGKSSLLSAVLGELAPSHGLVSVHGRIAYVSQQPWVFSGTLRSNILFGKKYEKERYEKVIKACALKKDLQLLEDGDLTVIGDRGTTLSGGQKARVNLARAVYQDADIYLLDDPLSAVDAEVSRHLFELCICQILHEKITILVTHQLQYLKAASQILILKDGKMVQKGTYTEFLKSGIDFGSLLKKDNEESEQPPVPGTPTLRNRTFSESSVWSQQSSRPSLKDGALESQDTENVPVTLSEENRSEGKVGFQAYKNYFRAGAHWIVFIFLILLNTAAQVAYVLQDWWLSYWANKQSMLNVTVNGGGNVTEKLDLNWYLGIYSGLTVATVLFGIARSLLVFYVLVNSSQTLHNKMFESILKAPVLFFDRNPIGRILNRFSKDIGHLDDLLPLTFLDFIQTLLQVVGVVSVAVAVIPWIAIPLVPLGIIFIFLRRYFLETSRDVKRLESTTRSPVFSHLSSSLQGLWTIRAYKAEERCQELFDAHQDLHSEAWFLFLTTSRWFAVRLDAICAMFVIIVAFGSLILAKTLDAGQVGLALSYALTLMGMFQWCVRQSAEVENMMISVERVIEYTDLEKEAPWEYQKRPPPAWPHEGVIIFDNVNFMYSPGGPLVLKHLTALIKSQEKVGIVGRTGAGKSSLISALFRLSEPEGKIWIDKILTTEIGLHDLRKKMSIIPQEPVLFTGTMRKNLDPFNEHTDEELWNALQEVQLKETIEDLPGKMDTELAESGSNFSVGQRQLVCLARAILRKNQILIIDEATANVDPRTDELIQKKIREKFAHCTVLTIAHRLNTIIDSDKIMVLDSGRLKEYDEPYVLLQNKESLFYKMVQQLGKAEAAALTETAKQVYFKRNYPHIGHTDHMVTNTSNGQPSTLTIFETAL
Nature of the assay: Inhibition of human MRP4 overexpressed in Sf9 cell membrane vesicles assessed as uptake of [3H]-estradiol-17beta-D-glucuronide in presence of ATP and GSH measured after 20 mins by membrane vesicle transport assay. It counts as ADME, cell-based.

Assay [3] concerns the target ATP-binding cassette sub-family C member 2 (Homo sapiens, UniProt Q92887). Nature of the assay: Inhibition of human MRP2 overexpressed in Sf9 cell membrane vesicles assessed as uptake of [3H]-estradiol-17beta-D-glucuronide in presence of ATP and GSH measured after 20 mins by membrane vesicle transport assay.
Assay [4] deals with ATP-binding cassette sub-family C member 3 (Homo sapiens, UniProt O15438). Description: Inhibition of human MRP3 overexpressed in Sf9 insect cell membrane vesicles assessed as uptake of [3H]-estradiol-17beta-D-glucuronide in presence of ATP and GSH measured after 10 mins by membrane vesicle transport assay. Type of assay: ADME, cell-based.
Chain of ATP-binding cassette sub-family C member 3 (O15438 whole entry): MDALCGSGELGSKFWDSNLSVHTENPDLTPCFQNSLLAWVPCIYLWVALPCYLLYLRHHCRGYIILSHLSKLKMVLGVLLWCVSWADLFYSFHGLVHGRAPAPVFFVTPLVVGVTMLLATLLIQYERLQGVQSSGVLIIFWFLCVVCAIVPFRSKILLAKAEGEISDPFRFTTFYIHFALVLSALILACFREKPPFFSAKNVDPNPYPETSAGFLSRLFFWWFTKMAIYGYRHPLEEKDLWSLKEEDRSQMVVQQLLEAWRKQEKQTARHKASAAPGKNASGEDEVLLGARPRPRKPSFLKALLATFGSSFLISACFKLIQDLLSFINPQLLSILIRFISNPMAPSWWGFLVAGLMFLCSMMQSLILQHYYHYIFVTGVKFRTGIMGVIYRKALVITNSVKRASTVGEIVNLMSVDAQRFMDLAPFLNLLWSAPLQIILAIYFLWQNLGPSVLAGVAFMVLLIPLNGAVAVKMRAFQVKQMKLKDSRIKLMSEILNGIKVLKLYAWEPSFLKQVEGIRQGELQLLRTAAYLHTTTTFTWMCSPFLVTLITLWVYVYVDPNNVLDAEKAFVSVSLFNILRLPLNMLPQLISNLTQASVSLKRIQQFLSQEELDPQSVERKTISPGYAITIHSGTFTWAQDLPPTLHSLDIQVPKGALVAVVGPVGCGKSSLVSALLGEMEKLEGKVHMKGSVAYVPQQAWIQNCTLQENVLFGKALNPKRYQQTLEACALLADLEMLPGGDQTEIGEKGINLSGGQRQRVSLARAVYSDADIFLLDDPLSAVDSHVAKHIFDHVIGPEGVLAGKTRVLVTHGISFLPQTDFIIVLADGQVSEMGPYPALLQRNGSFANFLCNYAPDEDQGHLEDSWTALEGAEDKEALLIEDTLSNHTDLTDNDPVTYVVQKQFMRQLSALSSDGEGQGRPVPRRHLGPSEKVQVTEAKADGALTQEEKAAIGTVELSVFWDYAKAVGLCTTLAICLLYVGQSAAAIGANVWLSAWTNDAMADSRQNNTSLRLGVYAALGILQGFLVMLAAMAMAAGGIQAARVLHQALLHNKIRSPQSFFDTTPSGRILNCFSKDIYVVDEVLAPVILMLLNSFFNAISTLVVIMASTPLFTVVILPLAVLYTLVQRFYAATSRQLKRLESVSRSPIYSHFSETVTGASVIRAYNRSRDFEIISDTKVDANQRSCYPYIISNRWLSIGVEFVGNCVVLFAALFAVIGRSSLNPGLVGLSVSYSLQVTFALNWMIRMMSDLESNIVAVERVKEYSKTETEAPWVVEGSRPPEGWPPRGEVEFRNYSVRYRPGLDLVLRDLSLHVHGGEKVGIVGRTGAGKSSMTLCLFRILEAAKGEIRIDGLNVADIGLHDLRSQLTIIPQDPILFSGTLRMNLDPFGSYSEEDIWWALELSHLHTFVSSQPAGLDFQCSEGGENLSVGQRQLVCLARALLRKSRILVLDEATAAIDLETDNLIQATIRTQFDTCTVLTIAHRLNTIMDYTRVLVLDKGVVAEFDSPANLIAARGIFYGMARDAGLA

Chain of Bile salt export pump (O95342 whole entry): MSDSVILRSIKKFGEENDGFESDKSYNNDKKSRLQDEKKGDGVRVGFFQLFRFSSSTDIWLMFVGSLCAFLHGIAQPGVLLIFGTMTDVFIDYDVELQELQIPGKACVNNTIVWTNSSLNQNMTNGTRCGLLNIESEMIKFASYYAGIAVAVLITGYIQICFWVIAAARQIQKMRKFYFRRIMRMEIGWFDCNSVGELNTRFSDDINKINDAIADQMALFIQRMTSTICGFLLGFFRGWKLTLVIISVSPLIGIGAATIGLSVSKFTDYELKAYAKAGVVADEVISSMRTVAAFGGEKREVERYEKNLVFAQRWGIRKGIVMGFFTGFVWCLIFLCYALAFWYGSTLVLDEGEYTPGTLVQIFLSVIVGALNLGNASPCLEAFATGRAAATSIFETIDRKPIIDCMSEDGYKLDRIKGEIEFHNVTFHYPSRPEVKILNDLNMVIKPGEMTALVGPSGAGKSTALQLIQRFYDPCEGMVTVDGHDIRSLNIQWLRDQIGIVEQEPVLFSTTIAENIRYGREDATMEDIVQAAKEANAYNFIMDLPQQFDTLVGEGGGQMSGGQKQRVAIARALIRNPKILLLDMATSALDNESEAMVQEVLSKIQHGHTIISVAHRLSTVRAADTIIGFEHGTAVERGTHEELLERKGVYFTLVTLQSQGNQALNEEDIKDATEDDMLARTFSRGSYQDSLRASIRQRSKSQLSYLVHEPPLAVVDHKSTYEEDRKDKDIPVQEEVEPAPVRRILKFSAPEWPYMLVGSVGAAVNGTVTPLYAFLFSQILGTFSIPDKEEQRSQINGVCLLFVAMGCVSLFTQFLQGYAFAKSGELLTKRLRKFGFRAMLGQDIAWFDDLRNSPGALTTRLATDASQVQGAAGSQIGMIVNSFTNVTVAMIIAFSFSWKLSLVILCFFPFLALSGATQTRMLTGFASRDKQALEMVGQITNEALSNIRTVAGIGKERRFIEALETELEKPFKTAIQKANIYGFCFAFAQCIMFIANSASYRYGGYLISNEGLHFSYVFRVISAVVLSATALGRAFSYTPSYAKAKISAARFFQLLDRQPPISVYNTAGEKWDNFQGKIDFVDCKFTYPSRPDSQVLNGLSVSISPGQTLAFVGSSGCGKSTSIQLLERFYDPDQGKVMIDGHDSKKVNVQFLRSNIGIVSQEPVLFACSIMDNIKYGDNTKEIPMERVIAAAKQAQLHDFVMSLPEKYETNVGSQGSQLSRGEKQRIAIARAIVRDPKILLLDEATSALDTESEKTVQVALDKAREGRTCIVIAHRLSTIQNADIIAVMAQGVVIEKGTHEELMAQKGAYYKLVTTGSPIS
Chain of ATP-binding cassette sub-family C member 2 (Q92887 whole entry): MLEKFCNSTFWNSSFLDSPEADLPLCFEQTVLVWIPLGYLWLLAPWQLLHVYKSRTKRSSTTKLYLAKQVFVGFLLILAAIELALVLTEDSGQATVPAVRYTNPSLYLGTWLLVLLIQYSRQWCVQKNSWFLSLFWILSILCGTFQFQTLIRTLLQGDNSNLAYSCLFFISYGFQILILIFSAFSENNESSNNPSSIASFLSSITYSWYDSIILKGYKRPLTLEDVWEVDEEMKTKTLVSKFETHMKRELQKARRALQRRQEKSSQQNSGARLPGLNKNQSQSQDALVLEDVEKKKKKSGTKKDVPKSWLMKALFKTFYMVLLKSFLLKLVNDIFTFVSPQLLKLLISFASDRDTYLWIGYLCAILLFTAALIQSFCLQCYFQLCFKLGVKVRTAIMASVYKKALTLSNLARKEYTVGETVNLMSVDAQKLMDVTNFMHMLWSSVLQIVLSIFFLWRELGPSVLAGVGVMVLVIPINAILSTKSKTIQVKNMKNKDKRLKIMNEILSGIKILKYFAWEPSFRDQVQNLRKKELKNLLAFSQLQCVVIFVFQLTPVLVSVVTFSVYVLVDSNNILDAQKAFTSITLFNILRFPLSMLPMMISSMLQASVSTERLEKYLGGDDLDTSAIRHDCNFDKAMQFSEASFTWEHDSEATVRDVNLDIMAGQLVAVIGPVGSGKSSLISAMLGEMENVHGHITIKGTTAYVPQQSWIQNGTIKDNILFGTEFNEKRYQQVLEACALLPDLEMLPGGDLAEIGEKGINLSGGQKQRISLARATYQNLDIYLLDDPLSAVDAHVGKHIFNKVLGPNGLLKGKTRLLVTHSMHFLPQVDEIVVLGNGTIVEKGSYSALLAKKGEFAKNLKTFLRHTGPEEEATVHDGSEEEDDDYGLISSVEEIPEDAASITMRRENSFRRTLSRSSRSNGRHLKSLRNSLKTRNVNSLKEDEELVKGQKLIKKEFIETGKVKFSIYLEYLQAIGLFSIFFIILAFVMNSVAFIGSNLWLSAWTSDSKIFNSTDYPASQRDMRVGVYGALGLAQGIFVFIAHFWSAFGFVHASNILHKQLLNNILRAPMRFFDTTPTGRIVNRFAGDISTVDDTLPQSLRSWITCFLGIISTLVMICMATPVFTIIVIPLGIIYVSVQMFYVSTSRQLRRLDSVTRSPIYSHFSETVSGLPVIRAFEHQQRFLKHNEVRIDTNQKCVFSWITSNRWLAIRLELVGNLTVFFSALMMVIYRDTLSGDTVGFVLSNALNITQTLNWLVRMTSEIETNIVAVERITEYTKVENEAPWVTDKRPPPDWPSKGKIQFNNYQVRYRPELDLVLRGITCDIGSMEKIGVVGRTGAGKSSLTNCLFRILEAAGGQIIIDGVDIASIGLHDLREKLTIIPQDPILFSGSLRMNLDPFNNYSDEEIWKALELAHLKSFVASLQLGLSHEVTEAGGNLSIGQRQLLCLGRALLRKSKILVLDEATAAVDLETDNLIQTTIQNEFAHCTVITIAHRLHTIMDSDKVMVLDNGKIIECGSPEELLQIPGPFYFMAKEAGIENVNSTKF

For the compound `Clc1ccc(COC(Cn2ccnc2)c2ccc(Cl)cc2Cl)c(Cl)c1` (stereo not given) [MICONAZOLE NITRATE], the half-maximal inhibitory concentration (IC50) (as a rule, the concentration needed to halve the response being measured) is 114 µM in assay [1], more than 133 µM in assay [2], more than 133 µM in assay [3] and more than 133 µM in assay [4].

`CC(C)[C@H](N)C(=O)OCCOCn1cnc2c(=O)[nH]c(N)nc21` [VALACYCLOVIR HYDROCHLORIDE]: the IC50 in assay [1], in assay [2], in assay [3] and in assay [4] was more than 133 µM in each case.

With `CCN1CCCC1CNC(=O)c1cc(S(=O)(=O)CC)c(N)cc1OC` (stereo not given) [AMISULPRIDE], the 50% inhibitory concentration (IC50) in assay [1], in assay [2], in assay [3] and in assay [4] was more than 133 µM each time.

Take `Nc1nc(=O)[nH]cc1F` [FLUCYTOSINE]: the IC50 in assay [1], in assay [2], in assay [3] and in assay [4] was more than 133 µM in each case.

With `CCn1cc(C(=O)O)c(=O)c2cc(F)c(N3CCN(C)CC3)cc21` [PEFLOXACIN], the IC50 in assay [1], in assay [2], in assay [3] and in assay [4] was more than 133 µM throughout.

As to `CC(C)C[C@H](CN)CC(=O)O` [PREGABALIN], the IC50 in assay [1], in assay [2], in assay [3] and in assay [4] was more than 133 µM each time.

With `CC(C)C[C@H](NC(=O)[C@@H](COC(C)(C)C)NC(=O)[C@H](Cc1ccc(O)cc1)NC(=O)[C@H](CO)NC(=O)[C@H](Cc1c[nH]c2ccccc12)NC(=O)[C@H](Cc1cnc[nH]1)NC(=O)[C@@H]1CCC(=O)N1)C(=O)N[C@@H](CCCNC(=N)N)C(=O)N1CCC[C@H]1C(=O)NNC(N)=O` [GOSERELIN ACETATE], the 50% inhibitory concentration (IC50) in assay [1], in assay [2], in assay [3] and in assay [4] was more than 133 µM throughout.

Take `COc1cc(Cc2cnc(N)nc2N)cc(OC)c1OC` [TRIMETHOPRIM]: the IC50 in assay [1], in assay [2], in assay [3] and in assay [4] was more than 133 µM throughout.

As for `CC[C@H](C)[C@@H]1NC(=O)[C@H](Cc2ccc(O)cc2)NC(=O)[C@@H](N)CSSC[C@@H](C(=O)N2CCC[C@H]2C(=O)N[C@@H](CC(C)C)C(=O)NCC(N)=O)NC(=O)[C@H](CC(N)=O)NC(=O)[C@H](CCC(N)=O)NC1=O`, the IC50 in assay [1], in assay [2], in assay [3] and in assay [4] was more than 133 µM in each case.

On to `CS(=O)(=O)OCCCCOS(C)(=O)=O` [BUSULFAN], for which the half-inhibitory concentration (IC50) in assay [1], in assay [2], in assay [3] and in assay [4] was more than 133 µM throughout.

For `Nc1nc(=O)n([C@@H]2CS[C@H](CO)O2)cc1F` [EMTRICITABINE], the half-maximal inhibitory concentration (IC50) in assay [1], in assay [2], in assay [3] and in assay [4] was more than 133 µM throughout.

Take `COc1ccc2cc1Oc1cc3c(cc1OC)CC[N+](C)(C)[C@H]3Cc1ccc(cc1)Oc1c(OC)c(OC)cc3c1[C@@H](C2)[N+](C)(C)CC3` [METOCURINE]: the concentration for half-maximal inhibition (IC50) in assay [1], in assay [2], in assay [3] and in assay [4] was more than 133 µM in each case.

With `Cc1cccc(C)c1OCC(C)N` (stereo not given) [MEXILETINE], the half-maximal inhibitory concentration (IC50) in assay [1], in assay [2], in assay [3] and in assay [4] was more than 133 µM in each case.

Regarding `CCCc1cc(=O)[nH]c(=S)[nH]1` [PROPYLTHIOURACIL], the 50% inhibitory concentration (IC50) in assay [1], in assay [2], in assay [3] and in assay [4] was more than 133 µM in each case.

In the case of `CCCCCCCCCC(=O)N[C@@H](Cc1c[nH]c2ccccc12)C(=O)N[C@H](CC(N)=O)C(=O)N[C@@H](CC(=O)O)C(=O)N[C@@H]1C(=O)NCC(=O)N[C@@H](CCCN)C(=O)N[C@@H](CC(=O)O)C(=O)N[C@H](C)C(=O)N[C@@H](CC(=O)O)C(=O)NCC(=O)N[C@H](CO)C(=O)N[C@@H]([C@H](C)CC(=O)O)C(=O)N[C@@H](CC(=O)c2ccccc2N)C(=O)O[C@@H]1C` [DAPTOMYCIN], the IC50 in assay [1] was more than 133 µM; in assay [2], more than 133 µM; in assay [3] it was 29.1 µM; in assay [4] it was more than 133 µM.

For the compound `O=c1[nH]cc(F)c(=O)[nH]1` [FLUOROURACIL], the IC50 in assay [1], in assay [2], in assay [3] and in assay [4] was more than 133 µM throughout.

With `OCc1cc(C(O)CNCCCCCCOCCCCc2ccccc2)ccc1O` (stereo not given) [SALMETEROL XINAFOATE], the concentration for half-maximal inhibition (IC50) in assay [1], in assay [2], in assay [3] and in assay [4] was more than 133 µM each time.

Consider `CCOC(=O)c1ccc(N)cc1` [BENZOCAINE], for which the concentration for half-maximal inhibition (IC50) in assay [1], in assay [2], in assay [3] and in assay [4] was more than 133 µM each time.

For the compound `CC(C)NCC(O)COc1ccc(COCCOC(C)C)cc1` (stereo not given) [BISOPROLOL FUMARATE], the IC50 in assay [1], in assay [2], in assay [3] and in assay [4] was more than 133 µM in each case.

`NC1=NC(=O)C(c2ccccc2)O1` (stereo not given) [PEMOLINE]: the half-inhibitory concentration (IC50) in assay [1], in assay [2], in assay [3] and in assay [4] was more than 133 µM throughout.

`CC(C)Cn1cnc2c(N)nc3ccccc3c21` [IMIQUIMOD]: the half-inhibitory concentration (IC50) in assay [1], in assay [2], in assay [3] and in assay [4] was more than 133 µM throughout.

Take `Cc1ccc(-c2cc(C(F)(F)F)nn2-c2ccc(S(N)(=O)=O)cc2)cc1` [CELECOXIB]: the IC50 in assay [1], in assay [2], in assay [3] and in assay [4] was more than 133 µM in each case.

With `CCCCN1CCCCC1C(=O)Nc1c(C)cccc1C` (stereo not given) [BUPIVACAINE HYDROCHLORIDE], the IC50 in assay [1], in assay [2], in assay [3] and in assay [4] was more than 133 µM each time.

Consider `CN(C)CCC[C@@]1(c2ccc(F)cc2)OCc2cc(C#N)ccc21` [ESCITALOPRAM OXALATE], for which the IC50 in assay [1], in assay [2], in assay [3] and in assay [4] was more than 133 µM each time.

Regarding `CN1C(C(=O)Nc2ccccn2)=C(O)c2sc(Cl)cc2S1(=O)=O` [LORNOXICAM], the half-inhibitory concentration (IC50) in assay [1] is 7.56 µM; in assay [2], more than 133 µM; in assay [3], more than 133 µM; in assay [4] it was more than 133 µM.

As for `CCOC(=O)[N-]c1cn(N2CCOCC2)n[o+]1` [MOLSIDOMINE], the IC50 in assay [1], in assay [2], in assay [3] and in assay [4] was more than 133 µM each time.

For `O=C(O)c1ccccc1-c1c2ccc(=O)cc-2oc2cc(O)ccc12`, the IC50 in assay [1], in assay [2], in assay [3] and in assay [4] was more than 133 µM in each case.

As to `CN(C)C(=O)Oc1cccc([N+](C)(C)C)c1` [NEOSTIGMINE], the IC50 in assay [1], in assay [2], in assay [3] and in assay [4] was more than 133 µM throughout.

Regarding `CCN(CC)CCNC(=O)c1cc(Br)c(N)cc1OC` [BROMOPRIDE], the 50% inhibitory concentration (IC50) in assay [1], in assay [2], in assay [3] and in assay [4] was more than 133 µM throughout.

As to `Cc1c(C(=O)NN2CCCCC2)nn(-c2ccc(Cl)cc2Cl)c1-c1ccc(Cl)cc1` [RIMONABANT], the IC50 was 25 µM in assay [1], more than 133 µM in assay [2], more than 133 µM in assay [3] and more than 133 µM in assay [4].
